Measurements published in patent publication US10526373B2, “Peptide showing melanin generation-promoting activity and use thereof” (CAREGEN CO., LTD., priority 2016, dated 2020).
No end group written: not given here.

Columns and labels:
Assay type in all cases: cell-based
[1] = system: TRP1; experiment: RT-PCR of melanogenesis-related genes: TRP1; conditions: mouse melanin cell line B16F10, 72 hours
[2] = system: tyrosinase; experiment: RT-PCR of melanogenesis-related genes: tyrosinase; conditions: mouse melanin cell line B16F10, 72 hours
Method: (§1) Melanocytes (B16F10 cell line) were incubated on 6-well culture plates in an incubator for 24 hours, and were treated with the peptides of the present invention with different concentrations. After RNA was extracted from the cells incubated for 72 hours, cDNA was prepared. PCR was performed by using respective primers specific to MITF and tyrosinase, which are the factors involved in melanogenesis, and the expression changes of the respective genes were observed.

[3] = system: tyrosinase; experiment: Tyrosinase activity assay in B16F10 cell lysate (L-dopa); conditions: mouse melanin cell line B16F10, peptide at different concentrations, 72 hours
Method: Melanoma cell line (B16F10) cells were cultured in 6-well culture plates for 24 hours, and treated with the peptide with difference concentrations, followed by culture for 72 hours. The 6-well culture plates were loaded on ice and washed with cool PBS, and then 300 μl of 0.1 M sodium phosphate buffer (pH 6 lysis buffer) containing 1% Triton X-100 was added. The cells were collected in 1.5-mL tubes, and then cell membranes were disrupted by repeating five times rapid-freezing at […] and thawing. After centrifugation at 13,000 rpm for 20 minutes, the supernatant was collected in other 1.5-mL tubes, and the protein of the samples was quantified. The samples were diluted to have the same protein concentration and then dispensed in every three wells in 96-well culture plates, and then 20 μl of 10 mM L-dopa was added, followed by incubation at 37° C. for 1 hour. The absorbance was measured at 475 nm.

[4] = system: MITF; experiment: RT-PCR of melanogenesis-related genes: MITF; conditions: mouse melanin cell line B16F10, 72 hours
Method: as §1

[5] = system: tyrosinase; experiment: Western blotting of melanogenesis-related proteins: tyrosinase; conditions: mouse melanin cell line B16F10, 72-hour incubation
Method: (§2) Melanocytes (B16F10 cell line) were incubated on 6-well culture plates in an incubator for 24 hours, and were treated with the peptides of the present invention with different concentrations. After 72-hour incubation, the cells were lysed, and the cells were subjected to western blotting using specific antibodies (two types, both by Santa Cruz Biotechnology, USA) to investigate the expression of MITF and tyrosinase, which are the factors involved in melanogenesis.

[6] = system: melanocytes (B16F10 cell line); experiment: Melanogenesis assay; conditions: mouse melanin cell line B16F10, peptide at different concentrations, 72 hours
Method: After melanocytes (B16F10 cell line) in 6-well plates were cultured in an incubator at 37° C. for 24 hours, the medium of each plate was removed and exchanged with fresh medium, followed by treatment with the present peptide at different concentrations. After the incubation for 72 hours, the culture medium was removed, and the cells were taken off and then transferred into 5-ml tubes, followed by centrifugation at 13,000 rpm for 3 minutes. The supernatant was removed, and cell pellets were collected to observe melanin. Then, 150 μl of 2 M NaOH was added to the cell pellets to lyse intracellular melanin at 60° C. for 30 minutes. Then, 100 μl of the supernatant obtained from the lysis was added into each well of 96-well plates, and the absorbance was measured at 490 nm.

[7] = system: MITF; experiment: Western blotting of melanogenesis-related proteins: MITF; conditions: mouse melanin cell line B16F10, 72-hour incubation
Method: as §2

[8] = system: CREB; experiment: Melanogenesis-related protein activity assay (CREB phosphorylation, western blotting); conditions: mouse melanin cell line B16F10, 72-hour incubation
Method: as §2, with “peptide” for “peptides”, “(Cell Signaling Technology,” for “(two types, both by Santa Cruz Biotechnology,”, “phosphorylation level” for “expression”, “CREB,” for “MITF and tyrosinase,”, “is a signaling substance” for “are the factors”

FCLGPCPYIWSL (cysteine pairing not given here) [SEQ ID NO: 2]
increased: mRNA expression of TRP1 [1] | mRNA expression of tyrosinase [2] | tyrosinase activity (absorbance at 475 nm) [3] | mRNA expression of MITF [4] | protein expression of tyrosinase [5] | melanogenesis (melanin, absorbance at 490 nm) [6]

RWRRKIEN [SEQ ID NO: 1]
increased: mRNA expression of TRP1 [1] | mRNA expression of tyrosinase [2] | tyrosinase activity (absorbance at 475 nm) [3] | protein expression of the MITF transcriptional factor [7] | phosphorylation level of CREB [8] | mRNA expression of MITF [4] | protein expression of tyrosinase [5] | melanogenesis (melanin, absorbance at 490 nm) [6]
